Experimental data: publication PMC5248581 (PeerJ, 2017)
“Also recorded” adds a separate entry of the source. Like-named read-outs stand apart in the source and are kept apart here. Residues, ends and D or L forms follow the SMILES beside them.

Columns and labels:
[1] = LC-MS of MK incubated with human umbilical vein ring; type: in vitro ADME; conditions: 37 °C; for fragment generated from MK: MK 1 µM in Krebs with umbilical vein ring, 5 or 15 min, LC-MS, duplicate; for increase of fragment ion intensity on reaction with tissue: vs. contaminant in commercial MK, MK 1 µM
Procedure: Synthetic MK (1 µM) was submitted to digestion in 2 ml of sterile-filtered Krebs solution in the presence of a freshly prepared ring of human umbilical vein (wet weight 25–37 mg). The tubes containing these materials were incubated at 37 °C for 5 or 15 min; the tissues were then removed and five volumes of cold ethanol (10 ml) were added to each tube. The tubes were incubated for 1 h on ice, centrifuged at 10,000 g to remove precipitated proteins and the kinin-containing supernatants were collected (procedure previously validated, [Raymond et al., 1995]). The supernatants were then completely evaporated to dryness in a Speedvac system and reconstituted in a small volume of water. Peptides were desalted on stage tip (C18), vacuum dried and then resuspended into 0.1% formic acid. One hundred fmol of each sample (starting MK quantity) was analyzed by mass spectrometry.
Mass spectrometry: peptide samples were separated by online reversed-phase (RP) nanoscale capillary liquid chromatography (nanoLC) and analyzed by electrospray mass spectrometry (ES MS/MS). The experiments were performed with a Ekspert NanoLC425 (Eksigent) coupled to a 5600+ mass spectrometer (AB Sciex, Framingham, MA, USA) equipped with a nanoelectrospray ion source. Peptide separation took place on a picofrit column (Reprosil 3u, 120A C18, 15 cm × 0.075 mm internal diameter). Peptides were eluted with a linear gradient from 5–35% solvent B (acetonitrile, 0.1% formic acid) in 35 min, at 300 nL/min. Mass spectra were acquired using a data dependent acquisition mode using Analyst software version 1.7. […] Dynamic exclusion was set for a period of 3 s and a tolerance of 100 ppm
Database searching: MGF peak list files were created using Protein Pilot version 5.0 software (Sciex) utilizing the Paragon and Progroup algorithms. MGF sample files were then analyzed using Mascot (Matrix Science, London, UK; version 2.5.1).
Mascot was set up to search the MK sequence assuming that the digestion enzyme was non-specific. Mascot was searched with a fragment ion mass tolerance of 0.100 Da and a parent ion tolerance of 0.100 Da. Deamidation of asparagine and glutamine and oxidation of methionine were specified in Mascot as variable modifications. Scaffold (version Scaffold_4.7.1; Proteome Software Inc., Portland, OR, USA) was used to validate MS/MS based peptide and protein identifications.
Data processing: Peak View 1.2.0.1 (Sciex) was used to extract the specific precursor masses and calculate the area under the curve. Extracted ion chromatoram (XIC) were generated from the TOF MS using a peak width of 0.05.

[2] = biological target: T1, rat recombinant myc-B2R (Rattus norvegicus, UniProt P25023); assay: [3H]BK binding competition, rat myc-B2R; conditions: 3 nM [3H]BK, 0 °C, intact HEK 293a cells, peptidase inhibitors (captopril, PMSF); [95% C.L.]
T1 construct: expressed in transfected cells
T1 sequence (P25023 1-396): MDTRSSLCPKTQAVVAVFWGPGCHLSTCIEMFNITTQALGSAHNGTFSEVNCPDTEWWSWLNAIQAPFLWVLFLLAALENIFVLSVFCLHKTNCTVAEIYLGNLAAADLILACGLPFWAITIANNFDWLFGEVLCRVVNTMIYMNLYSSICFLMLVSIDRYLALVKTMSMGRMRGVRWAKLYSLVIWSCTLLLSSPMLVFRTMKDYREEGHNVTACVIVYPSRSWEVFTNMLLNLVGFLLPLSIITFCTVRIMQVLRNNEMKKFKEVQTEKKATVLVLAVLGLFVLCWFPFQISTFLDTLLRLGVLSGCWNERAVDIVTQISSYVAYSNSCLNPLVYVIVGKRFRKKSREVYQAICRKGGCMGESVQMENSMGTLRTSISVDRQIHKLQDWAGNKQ
Procedure: The construction of myc-tagged B2R expression vectors containing the human and rat receptor sequence has been recently reported, as well as the derivation of HEK 293a cell lines that stably express each one of these constructions ([Charest-Morin et al., 2015]). The HEK 293a cell line was originally obtained from Sigma-Aldrich. Affinity of N-terminally extended kinins for the B2R was evaluated using a radioligand binding competition assay performed at 0 °C in the presence of peptidase inhibitors that included captopril and PMSF ([Houle et al., 2000]).
Results are presented as means ± s.e.m.

[3] = tested on: rat mast cells; conditions: read-out: histamine release EC50; ref Devillier et al., 1985; cited from earlier work
Description: MK, encoded by two genes as five identical and cleavable amino acid sequences ([Chen et al., 2003]), is presumably a dissuasive toxin expressed in the skin of the toad Bombina maxima. Several such BK-related peptides of amphibian origin are believed to have co-evolved with the kinin receptors of the predatory species such as birds and snakes ([Xi et al., 2015]).

[4] = tested on: male Sprague-Dawley rats; conditions: for Basal mean arterial blood pressure after pre-treatment / Basal heart rate after pre-treatment: 15 min after i.v., enalaprilat 0.1 mg/kg n=6, icatibant 25 µg/kg n=6, pyrilamine 5 mg/kg n=16, means ± s.e.m.; for Basal mean arterial blood pressure after pre-treatment: control 96.5 ± 2.5; for Basal heart rate after pre-treatment: control 351 ± 10, * P < 0.01 vs control; for effect of pretreatment on hypotensive effect of MK: enalaprilat 0.1 mg/kg, icatibant 25 µg/kg, 15 min before MK
Procedure: All surgical and experimental procedures were reviewed and approved by the Animal Care and Handling Committee of Laval University, in accordance with the Canadian Council on Animal Care (file no. 2012-223). Experiments were performed on male Sprague-Dawley rats (300–375 g) purchased from Charles River Laboratories (St-Constant, Qc, Canada). Only animals of the male gender have been studied to be consistent with related and recently published data ([Jean et al., 2016a]). The rats were housed in a temperature-controlled room (22 ± 1 °C) on a 12 h/12 h light-dark cycle (lights on at 0600) and had free access to normal chow diet and tap water. They were allowed to acclimate to their environmental conditions for one week prior to being studied. At the end of the acclimation period, the rats were anesthetised with sodium pentobarbital (50 mg kg^−1, i.p., supplemented as required) and had one catheter implanted into the right jugular vein (for intravenous ( i.v.) injection) and one into the left femoral artery (for direct and continuous measurement of blood pressure and heart rate as previously described, [Jean et al., 2016a]). In some experiments, a miniaturized pulsed Doppler flow probe ([Haywood et al., 1981]) was implanted around the distal abdominal aorta (below the level of the ileocaecal artery) through a midline abdominal incision to monitor changes in hindquarter hemodynamic, according to the method previously developed by [Gardiner & Bennett (1988)] and as previously described ([Bachelard et al., 1992]; [Jean et al., 2016a]). Experiments started at least 30 min following the end of surgery in anesthetised rats.
Baseline heart rate and phasic and mean arterial blood pressure were recorded over a period of 15 min in anesthetized rats. […] Peptides were dissolved in isotonic saline (0.9% NaCl) containing 0.1% BSA to prevent the adsorption of peptide to the glassware and plastic surfaces. All i.v. injections were given as 100 µl boluses which were washed in with a further 100 µl of saline (the dead space of the catheter). Only one peptide was tested per group of rats and each injection started with saline-BSA 0.1% followed by the lowest dose of peptide. The next dose was administered once all recorded cardiovascular parameters had returned to baseline after the previous injection (usually 2–10 min). At the end of the experiments each animal was euthanized with an overdose of sodium pentobarbital (240 mg/kg, i.v.).
In these experiments, enalaprilat was intravenously administered as bolus (0.1 mg/kg, 0.1 ml) following a 10 min period of baseline measurements of heart rate and blood pressure. Fifteen minutes later, a dose–response curve to MK was obtained, as described above. […] In these experiments, icatibant was intravenously administered as bolus (25 µg/kg, 0.1 ml) 15 min before the i.v. injection of increasing doses of MK, as above. […] In these experiments, pyrilamine was intravenously administered as bolus (5 mg/kg, 0.1 ml) 15 min before the i.v. injection of increasing doses of MK, as above.
(§1) Results are presented as means ± s.e.m. Radioligand binding data were fitted by nonlinear regression to a one-site competition equation using a least-square method (Prism 5.0; GraphPad Software Inc., San Diego, CA, USA) and IC50 values calculated from this procedure. The same computer program was used to draw concentration-effect curves (least square fitting of sigmoidal dose–response equation with variable slope) and to derive contractile EC50 values. Data describing baseline values of heart rate and mean arterial blood pressure and hypotensive responses to peptides in anesthetized rats were assessed by using one-way analysis of variance (ANOVA) followed by the Dunnett’s test (repeated comparison with a common control).

[5] = biological target: T2, human isolated umbilical vein (BK B2R; histamine H1R) (Homo sapiens, UniProt P30411); conditions: antagonist 1 µM
T2 sequence (P30411 1-391): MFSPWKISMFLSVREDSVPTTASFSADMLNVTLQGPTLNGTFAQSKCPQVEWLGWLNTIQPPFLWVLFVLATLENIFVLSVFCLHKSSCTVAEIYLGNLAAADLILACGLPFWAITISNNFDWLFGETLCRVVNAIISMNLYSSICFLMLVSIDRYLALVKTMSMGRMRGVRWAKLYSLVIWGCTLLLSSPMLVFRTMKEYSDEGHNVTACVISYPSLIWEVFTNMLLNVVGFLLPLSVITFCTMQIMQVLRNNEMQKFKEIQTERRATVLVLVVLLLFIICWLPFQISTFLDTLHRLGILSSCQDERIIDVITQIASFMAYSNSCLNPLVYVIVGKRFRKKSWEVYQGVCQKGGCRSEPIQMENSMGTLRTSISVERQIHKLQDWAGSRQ
Description: The institutional research ethics board (CHU de Québec) approved the anonymous use of human umbilical cord segments obtained after elective cesarean section deliveries (file number: 2012-323). Informed written consent was obtained from mothers.
as §1, with “control). The effects of drugs on the hypotensive responses to each dose of MK were assessed by using ANOVA followed by the Dunnett’s test.” for “control).”

For “DLPKINRKGPRPP [N-terminal fragment of MK]”, the “fragment generated from MK” value [1] was “Abundant”.
In the case of “DLPKINRKGPRPPGF [N-terminal fragment of MK]”, the “fragment generated from MK” value [1] is reported as “Abundant”.
Work on `NC(N)=NCCC[C@H](NC(=O)[C@H](Cc1ccccc1)NC(=O)[C@@H]1CCCN1C(=O)[C@H](CO)NC(=O)[C@H](Cc1ccccc1)NC(=O)CNC(=O)[C@@H]1CCCN1C(=O)[C@@H]1CCCN1C(=O)[C@@H](N)CCCN=C(N)N)C(=O)O` [BK, bradykinin] (H-RPPGFSPFR-OH) yielded an IC50 [2] of 0.0192 µM.
For Lys-BK, the EC50 [3] is listed as 7.7 µM.
For `C[C@H](N[C@@H](CCc1ccccc1)C(=O)O)C(=O)N1CCC[C@H]1C(=O)O` [enalaprilat], the “Basal mean arterial blood pressure after pre-treatment” value [4] was 94.9 ± 4.6, the “Basal heart rate after pre-treatment” value [4] was “slight but significant increase in basal HR” and the “Basal heart rate after pre-treatment” value ([4]; listed as Enalaprilat) was 417 ± 13^*. The “effect of pretreatment on hypotensive effect of MK” value ([4]; pyrilamine 5 mg/kg i.v.) was “not significantly potentiated”.
In the case of `COc1ccc(CN(CCN(C)C)c2ccccn2)cc1` [pyrilamine], the “effect of receptor antagonist on MK-induced contraction” value ([5]; 30 min before MK) is reported as “did not reduce the venous effect of MK”, the “effect of antagonist on histamine-induced contraction” value ([5]; 30 min before histamine) is reported as “profoundly and competitively inhibiting” and the “Basal mean arterial blood pressure after pre-treatment” value [4] is reported as 87.4 ± 2.7. The “Basal heart rate after pre-treatment” value [4] was 335 ± 6.1, the “effect of pretreatment on hypotensive effect of MK” value ([4]; pyrilamine 5 mg/kg i.v.) was “did not antagonize the effects of MK” and the “effect of pretreatment on hypotensive effect of histamine” value ([4]; pyrilamine 5 mg/kg i.v., histamine 6.4 µg/kg i.v.) was “abated the hypotensive effect of histamine”.
In the case of `N=C(N)NCCC[C@H](NC(=O)[C@H](Cc1ccccc1)NC(=O)[C@@H]1CCCN1C(=O)[C@H](CO)NC(=O)[C@H](Cc1ccccc1)NC(=O)CNC(=O)[C@@H]1CCCN1C(=O)[C@@H]1CCCN1C(=O)[C@H](CCCNC(=N)N)NC(=O)[C@@H]1CCCN1C(=O)CN)C(=O)O` [Gly-Pro-BK] (H-GPRPPGFSPFR-OH), the “fragment generated from MK” value [1] is reported as “evidenced in a time-dependent manner; also recorded: metabolite that accumulates” and the “increase of fragment ion intensity on reaction with tissue” value [1] is reported as 3-4 -fold.
For `N=C(N)NCCC[C@H](NC(=O)[C@H](Cc1ccccc1)NC(=O)[C@@H]1CCCN1C(=O)[C@H](CO)NC(=O)[C@H](Cc1ccccc1)NC(=O)CNC(=O)[C@@H]1CCCN1C(=O)[C@@H]1CCCN1C(=O)[C@H](CCCNC(=N)N)NC(=O)[C@@H]1CCCN1C(=O)CNC(=O)[C@@H](N)CCCCN)C(=O)O` [Lys-Gly-Pro-BK] (H-KGPRPPGFSPFR-OH), the “fragment generated from MK” value [1] was “evidenced in a time-dependent manner; also recorded: major C-terminal metabolite” and the “increase of fragment ion intensity on reaction with tissue” value [1] was 3-4 -fold.
